ChEMBL document CHEMBL1153519, “Characterization of novel selective H1-antihistamines for clinical evaluation in the treatment of insomnia” (J Med Chem, 2009)
The source made the active and inactive calls. The calls are words filed in the database; no cut-off is given here.

Key:
Rattus norvegicus [1] = assay: Effect on sleep-awake pattern in CD IGS rat model of insomnia assessed as latency to 20 secs REM sleep at 30 mg/kg, po by EEG/EMG study relative to vehicle control; assay type: functional
[2] = molecular target: Histamine H3 receptor (Homo sapiens) (UniProt Q9Y5N1); assay: Displacement of [3H]R-alpha-methylhistamine from human histamine H3 receptor expressed in CHO Flp-In cells by liquid scintillation counting; assay type: cell-based
Chain of Histamine H3 receptor (Homo sapiens) (Q9Y5N1 whole entry): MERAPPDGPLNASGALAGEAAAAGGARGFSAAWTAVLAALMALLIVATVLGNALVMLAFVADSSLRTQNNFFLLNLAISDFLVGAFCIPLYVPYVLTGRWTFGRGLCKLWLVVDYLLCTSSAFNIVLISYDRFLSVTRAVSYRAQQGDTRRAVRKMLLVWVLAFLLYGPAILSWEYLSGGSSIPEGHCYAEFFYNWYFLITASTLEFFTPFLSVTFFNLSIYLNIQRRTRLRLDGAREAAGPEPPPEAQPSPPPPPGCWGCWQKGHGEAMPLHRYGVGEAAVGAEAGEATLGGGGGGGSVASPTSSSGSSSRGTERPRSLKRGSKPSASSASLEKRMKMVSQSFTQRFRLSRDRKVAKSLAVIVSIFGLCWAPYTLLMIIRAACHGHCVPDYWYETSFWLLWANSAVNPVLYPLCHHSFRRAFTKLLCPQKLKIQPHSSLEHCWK

Rattus norvegicus [3] = assay: Increase in REM sleep in CD IGS rat model of insomnia at 30 mg/kg, po after 4 hrs by EEG/EMG study relative to vehicle control; assay type: functional
[4] = Plasma concentration in rat at 30 mg/kg, po after 1 hr
[5] = Drug level in rat brain at 30 mg/kg after 1 hr by LC-MS-MS analysis; assay type: ADME, organism-based; parameters: dose 30 mg/kg; conditions: read-out: Drug uptake
[6] = molecular target: T1, 5-hydroxytryptamine receptor 2A (Homo sapiens, UniProt P28223); assay: Displacement of [3H]ketanserin from human 5HT2A receptor expressed in HEK293 Flp-In cells at 10 uM by liquid scintillation counting; assay type: cell-based
T1 sequence (P28223 whole entry): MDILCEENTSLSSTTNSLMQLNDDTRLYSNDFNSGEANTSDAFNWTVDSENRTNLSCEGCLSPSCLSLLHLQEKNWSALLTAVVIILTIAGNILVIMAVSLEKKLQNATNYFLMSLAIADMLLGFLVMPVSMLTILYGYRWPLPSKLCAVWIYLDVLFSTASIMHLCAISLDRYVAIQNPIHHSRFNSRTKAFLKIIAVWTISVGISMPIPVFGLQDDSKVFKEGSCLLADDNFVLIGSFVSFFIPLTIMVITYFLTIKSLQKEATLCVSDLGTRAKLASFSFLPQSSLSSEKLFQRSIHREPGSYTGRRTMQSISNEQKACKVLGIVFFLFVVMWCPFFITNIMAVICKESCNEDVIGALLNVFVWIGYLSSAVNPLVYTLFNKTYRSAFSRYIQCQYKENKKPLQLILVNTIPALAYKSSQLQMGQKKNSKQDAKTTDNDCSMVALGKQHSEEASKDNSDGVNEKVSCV

in vitro [7] = conditions: human, liver microsomes
Rattus norvegicus [8] = assay: Increase in NREM sleep in CD IGS rat model of insomnia at 30 mg/kg, po after 4 hrs by EEG/EMG study relative to vehicle control; assay type: functional
Rattus norvegicus [9] = assay: Effect on sleep-awake pattern in CD IGS rat model of insomnia assessed as latency to 1 min NREM sleep at 30 mg/kg, po by EEG/EMG study relative to vehicle control; assay type: functional
[10] = molecular target: Voltage-gated inwardly rectifying potassium channel KCNH2 (Homo sapiens, UniProt Q12809); assay: Inhibition of human ERG expressed in HEK293 cells by patch-clamp technique
Chain of Voltage-gated inwardly rectifying potassium channel KCNH2 (Q12809 whole entry): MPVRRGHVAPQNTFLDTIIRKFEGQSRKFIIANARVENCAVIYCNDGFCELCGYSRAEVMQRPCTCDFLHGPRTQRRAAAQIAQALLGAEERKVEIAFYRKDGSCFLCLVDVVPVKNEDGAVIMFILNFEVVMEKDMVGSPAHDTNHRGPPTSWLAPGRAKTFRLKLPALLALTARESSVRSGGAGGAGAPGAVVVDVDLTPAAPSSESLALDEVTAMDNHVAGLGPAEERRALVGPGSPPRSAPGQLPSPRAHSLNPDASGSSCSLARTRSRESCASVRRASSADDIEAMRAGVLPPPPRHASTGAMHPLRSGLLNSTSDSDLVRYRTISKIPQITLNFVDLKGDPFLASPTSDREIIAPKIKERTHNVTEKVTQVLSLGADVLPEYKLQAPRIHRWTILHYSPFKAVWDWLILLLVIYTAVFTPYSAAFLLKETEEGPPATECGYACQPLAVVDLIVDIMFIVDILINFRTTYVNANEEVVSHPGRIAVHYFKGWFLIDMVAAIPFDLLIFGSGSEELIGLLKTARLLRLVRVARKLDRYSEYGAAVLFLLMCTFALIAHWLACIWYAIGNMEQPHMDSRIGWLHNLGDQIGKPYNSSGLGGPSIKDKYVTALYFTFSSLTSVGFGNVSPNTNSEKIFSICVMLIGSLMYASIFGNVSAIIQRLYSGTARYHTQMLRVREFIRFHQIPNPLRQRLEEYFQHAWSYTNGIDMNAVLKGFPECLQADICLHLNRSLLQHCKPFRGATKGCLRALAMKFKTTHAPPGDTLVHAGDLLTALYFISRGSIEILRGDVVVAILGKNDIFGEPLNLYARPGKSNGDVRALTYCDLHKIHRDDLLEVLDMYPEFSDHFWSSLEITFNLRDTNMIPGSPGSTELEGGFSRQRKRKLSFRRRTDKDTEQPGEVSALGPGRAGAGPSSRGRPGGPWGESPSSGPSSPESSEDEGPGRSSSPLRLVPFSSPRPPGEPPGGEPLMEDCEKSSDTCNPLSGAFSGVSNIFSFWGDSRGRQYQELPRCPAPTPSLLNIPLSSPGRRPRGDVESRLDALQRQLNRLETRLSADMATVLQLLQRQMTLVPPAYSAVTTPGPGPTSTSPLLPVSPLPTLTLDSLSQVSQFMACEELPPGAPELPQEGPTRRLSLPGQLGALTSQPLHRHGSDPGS

Cynomolgus monkey = assay: Cardiotoxicity in conscious cynomolgus monkey assessed as decrease in heart rate up to 200 mg/kg administered as escalated dose with 1 week washout period between doses by telemetry study; assay type: toxicity, organism-based, Macaca fascicularis; parameters: dose 200 mg/kg; scale not given: the % may be the effect or the level left; conditions: in vivo, 168 h
[11] = molecular target: T2, Muscarinic acetylcholine receptor M1 (Homo sapiens, UniProt P11229); assay: Displacement of [3H]N-methylscopolamine from human muscarinic M1 receptor expressed in CHO Flp-In cells by liquid scintillation counting; assay type: cell-based
T2 sequence (P11229 whole entry): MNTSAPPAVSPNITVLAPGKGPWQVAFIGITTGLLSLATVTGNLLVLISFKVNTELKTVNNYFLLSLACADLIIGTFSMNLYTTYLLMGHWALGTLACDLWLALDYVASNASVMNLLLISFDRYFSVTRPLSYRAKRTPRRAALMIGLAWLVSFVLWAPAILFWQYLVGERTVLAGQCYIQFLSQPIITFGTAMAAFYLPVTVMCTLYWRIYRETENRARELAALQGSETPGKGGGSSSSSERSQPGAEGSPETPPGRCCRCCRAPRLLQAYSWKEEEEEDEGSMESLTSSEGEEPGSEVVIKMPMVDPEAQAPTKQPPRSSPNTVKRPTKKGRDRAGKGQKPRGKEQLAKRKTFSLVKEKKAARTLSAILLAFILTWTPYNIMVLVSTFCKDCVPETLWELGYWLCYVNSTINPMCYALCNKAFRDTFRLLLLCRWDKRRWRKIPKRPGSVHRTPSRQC

Cytochrome P450 2D6 = Cytochrome P450 2D6 (Homo sapiens, UniProt P10635); assay: Inhibition of recombinant CYP2D6 in presence of NADPH generating system
Chain of Cytochrome P450 2D6 (P10635 whole entry): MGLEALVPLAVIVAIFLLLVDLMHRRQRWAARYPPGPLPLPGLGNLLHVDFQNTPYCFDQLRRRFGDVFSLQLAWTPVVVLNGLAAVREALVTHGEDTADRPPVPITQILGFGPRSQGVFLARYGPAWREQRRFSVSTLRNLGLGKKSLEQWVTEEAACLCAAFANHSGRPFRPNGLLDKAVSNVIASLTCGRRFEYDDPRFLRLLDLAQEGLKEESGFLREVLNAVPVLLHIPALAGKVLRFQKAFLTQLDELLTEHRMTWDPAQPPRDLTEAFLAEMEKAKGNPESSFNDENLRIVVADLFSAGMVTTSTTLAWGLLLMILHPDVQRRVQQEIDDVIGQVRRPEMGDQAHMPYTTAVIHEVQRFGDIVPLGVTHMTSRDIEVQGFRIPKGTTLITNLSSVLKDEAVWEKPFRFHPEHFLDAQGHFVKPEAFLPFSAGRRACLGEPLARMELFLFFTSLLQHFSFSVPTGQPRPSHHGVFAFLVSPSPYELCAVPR

[12] = Drug level in rat brain at 30 mg/kg after 4 hrs by LC-MS-MS analysis; assay type: ADME, organism-based; parameters: dose 30 mg/kg; conditions: read-out: Drug uptake
Histamine H1 receptor = Histamine H1 receptor (Homo sapiens, UniProt P35367); assay: Displacement of [3H]pyrilamine from human histamine H1 receptor expressed in CHO Flp-In cells by liquid scintillation counting; assay type: cell-based
Chain of Histamine H1 receptor (P35367 whole entry): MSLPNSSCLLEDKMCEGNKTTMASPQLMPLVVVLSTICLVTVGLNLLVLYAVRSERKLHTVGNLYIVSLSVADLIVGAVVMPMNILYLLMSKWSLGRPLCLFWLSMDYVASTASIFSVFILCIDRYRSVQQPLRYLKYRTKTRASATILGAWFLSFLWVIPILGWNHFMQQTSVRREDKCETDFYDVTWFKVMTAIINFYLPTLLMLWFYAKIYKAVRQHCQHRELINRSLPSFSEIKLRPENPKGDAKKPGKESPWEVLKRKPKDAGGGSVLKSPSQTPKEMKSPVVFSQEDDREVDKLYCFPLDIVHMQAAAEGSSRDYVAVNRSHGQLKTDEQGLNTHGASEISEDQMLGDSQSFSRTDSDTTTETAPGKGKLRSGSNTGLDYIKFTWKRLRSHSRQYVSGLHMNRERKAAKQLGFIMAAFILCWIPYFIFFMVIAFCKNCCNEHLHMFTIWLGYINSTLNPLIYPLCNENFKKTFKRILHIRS

[13] = Systemic clearance in rat by LC-MS-MS analysis; conditions: human, in vivo
in vitro [14] = conditions: rat, liver microsomes
[15] = molecular target: Muscarinic acetylcholine receptor M3 (Homo sapiens, UniProt P20309); assay: Displacement of [3H]N-methylscopolamine from human muscarinic M3 receptor expressed in CHO Flp-In cells by liquid scintillation counting; assay type: cell-based
Chain of Muscarinic acetylcholine receptor M3 (P20309 whole entry): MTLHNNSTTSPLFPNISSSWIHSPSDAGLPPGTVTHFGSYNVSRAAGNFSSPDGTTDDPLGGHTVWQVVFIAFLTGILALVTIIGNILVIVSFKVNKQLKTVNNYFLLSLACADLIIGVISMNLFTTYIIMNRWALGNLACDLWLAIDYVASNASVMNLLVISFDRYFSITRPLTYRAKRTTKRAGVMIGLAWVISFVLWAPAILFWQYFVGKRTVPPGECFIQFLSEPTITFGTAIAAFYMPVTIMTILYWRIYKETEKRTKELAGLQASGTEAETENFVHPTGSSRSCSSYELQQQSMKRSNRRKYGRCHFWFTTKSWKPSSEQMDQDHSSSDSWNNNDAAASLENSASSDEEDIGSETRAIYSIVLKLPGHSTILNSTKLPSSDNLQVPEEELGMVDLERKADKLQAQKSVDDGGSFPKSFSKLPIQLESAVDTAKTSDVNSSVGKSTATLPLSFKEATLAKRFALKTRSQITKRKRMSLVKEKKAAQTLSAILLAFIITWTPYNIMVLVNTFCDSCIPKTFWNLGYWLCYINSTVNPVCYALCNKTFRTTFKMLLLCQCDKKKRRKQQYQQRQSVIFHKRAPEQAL

Rattus norvegicus [16] = assay: Effect on sleep-awake pattern in CD IGS rat model of insomnia assessed as latency to 1 min NREM sleep at 60 mg/kg, po by EEG/EMG study relative to vehicle control; assay type: functional
Rattus norvegicus [17] = assay: Effect on sleep-awake pattern in CD IGS rat model of insomnia assessed as latency to 20 secs REM sleep at 60 mg/kg, po by EEG/EMG study relative to vehicle control; assay type: functional
Rattus norvegicus [18] = assay: Increase in REM sleep in CD IGS rat model of insomnia at 60 mg/kg, po after 4 hrs by EEG/EMG study relative to vehicle control; assay type: functional
Rattus norvegicus [19] = assay: Increase in NREM sleep in CD IGS rat model of insomnia at 60 mg/kg, po after 4 hrs by EEG/EMG study relative to vehicle control; assay type: functional
Cytochrome P450 3A4 = Cytochrome P450 3A4 (Homo sapiens, UniProt P08684); assay: Inhibition of recombinant CYP3A4 in presence of NADPH generating system; assay type: ADME; conditions: recombinant enzyme
Chain of Cytochrome P450 3A4 (P08684 whole entry): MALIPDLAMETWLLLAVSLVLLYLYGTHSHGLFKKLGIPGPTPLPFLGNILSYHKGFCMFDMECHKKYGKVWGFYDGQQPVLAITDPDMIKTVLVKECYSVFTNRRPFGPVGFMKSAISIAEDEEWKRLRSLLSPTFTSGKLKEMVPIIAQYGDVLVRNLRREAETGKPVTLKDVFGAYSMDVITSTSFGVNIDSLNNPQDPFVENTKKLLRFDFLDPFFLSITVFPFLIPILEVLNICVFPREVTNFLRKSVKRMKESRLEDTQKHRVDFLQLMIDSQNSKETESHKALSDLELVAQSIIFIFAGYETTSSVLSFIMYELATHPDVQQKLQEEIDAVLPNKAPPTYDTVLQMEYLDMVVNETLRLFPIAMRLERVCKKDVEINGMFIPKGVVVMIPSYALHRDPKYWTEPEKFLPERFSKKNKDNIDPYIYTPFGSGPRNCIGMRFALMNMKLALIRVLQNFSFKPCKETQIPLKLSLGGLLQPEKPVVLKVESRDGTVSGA

[20] = molecular target: T1, 5-hydroxytryptamine receptor 2A; assay: Displacement of [3H]ketanserin from human 5HT2A receptor expressed in HEK293 Flp-In cells by liquid scintillation counting; assay type: cell-based
[21] = Half life in human; assay type: ADME, organism-based; conditions: in vivo
[22] = Elimination half life in human at 50 mg, po; assay type: ADME, organism-based; conditions: in vivo, read-out: beta t1/2 (converted)

SMILES | Activity [2] | Activity [6] | CLhep predicted at 1 h, 1 µM (in vitro [7]) | Ki [11] | IC50 (Cytochrome P450 2D6) | Ki (Histamine H1 receptor) | Activity (Rattus norvegicus [16]) | Activity (Rattus norvegicus [17]) | Activity (Rattus norvegicus [18]) | Activity (Rattus norvegicus [19]) | Ki [20] | further results
C[C@@H](c1ccccn1)c1c(CCN(C)C)sc2ccccc12 | inactive | 31% | 10 mL/min/kg | 5300 nM | 28200 nM | 4 nM | – | – | – | – | – | Activity (Rattus norvegicus [1]): 138%; Activity (Rattus norvegicus [3]): 167%; concentration at 1 h [4]: 4 ng/mL; concentration at 1 h [5]: 29 ng/mL; Activity (Rattus norvegicus [8]): 142%; Activity (Rattus norvegicus [9]): 124%; IC50 [10]: 1400 nM; Activity (Cynomolgus monkey): 16%; concentration at 4 h [12]: 23 ng/mL; clearance [13]: 5.2 mL/min/kg; CLint scaled at 1 h, 1 µM (in vitro [14]): 2300 mL/min/kg
C[C@@H](c1ccccn1)c1c(CCN(C)C)oc2ccccc12 | inactive | 62% | 10 mL/min/kg | 320 nM | – | 0.9 nM | – | – | – | – | – | Ki [15]: 76 nM
C[C@H](C1=C(CCN(C)C)Cc2ccccc21)c1ccccn1 | inactive | 33% | 7 mL/min/kg | 2400 nM | 32500 nM | 0.4 nM | 134% | 136% | 126% | 132% | – | IC50 [10]: 900 nM; inhibition (INH) (Cytochrome P450 3A4): Not Active
CN(C)CCC1=C(Cc2cnccn2)c2ccccc2C1 | inactive | – | – | – | – | – | 79% | 92% | 113% | 159% | 600 nM | –
CN(C)CCc1sc2ccccc2c1Cc1cnccn1 | inactive | – | – | – | – | 75 nM | – | – | – | – | – | –
CN(C)CCC1=C(Cc2ccc(F)cc2)c2ccccc2C1 | inactive | – | 13 mL/min/kg | – | 300 nM | 0.6 nM | – | – | – | – | 140 nM | –
Cc1ccc(-c2nc3ccc(C)cn3c2CC(=O)N(C)C)cc1 [ZOLPIDEM] | – | – | – | – | – | – | – | – | – | – | – | Activity (Rattus norvegicus [1]): 199%; Activity (Rattus norvegicus [3]): 42%; Activity (Rattus norvegicus [8]): 220%; Activity (Rattus norvegicus [9]): 18%
C[C@H](C1=C(CCN(C)C)Cc2ccccc21)c1cnccn1 | inactive | 32% | – | – | – | – | 109% | 104% | 129% | 145% | – | –
CN(C)CCc1sc2ccccc2c1Cc1ccc(F)cc1 | inactive | – | 16 mL/min/kg | 2000 nM | 200 nM | 11 nM | – | – | – | – | 90 nM | –
CC(C1=C(CCN(C)C)Cc2ccccc21)c1ccccn1 (racemic) | – | – | – | – | – | – | – | – | – | – | – | half-life [21]: 5 h; half-life [22]: 18 h
